Laboratory results as given in patent publication US20020120098A1, “Enhanced stimulation of erythropoiesis” (priority 1996, published 2002).

Tests used:
Assay type in all cases: cell-based, human
erythroid colonies = assay: Hemoglobin production by erythroid colonies, anion exchange HPLC; details: 5% O2, 2 U/ml Epo; for adult Hb / fetal Hb / total Hb: 100 μM hemin, 1.0 mg/ml HAo or HEMOLINK, 250 μM FeCl3; for adult Hb per cell / fetal Hb per cell / total Hb per cell: estimated assuming 30,000 cells/BFU-E and 100 cells/CFU-E
Method: Hemoglobin synthesis in erythroid colonies was analyzed by anion exchange high performance liquid chromatography (HPLC). Colonies were harvested from CFA plates and cell lysates were prepared after the progenitor colonies had been enumerated. Colonies were isolated from methyl cellulose by several washes in PBS. The cells were pelleted and lysed in 50 mM Tris, pH 8.8 and the cell debris removed by pelleting the cell lysate. The lysate supernatants were filtered through a 0.2 ,μm filter prior to loading onto a POROS® HQ/H anion exchange HPLC column (PerSeptive Biosystems). The hemoglobin was eluted with an increasing NaCl gradient and the optical density (O.D.) monitored at a wavelength of 414 nm The amount of hemoglobin present in the lysates was quantitated by comparison with standard hemoglobin solutions of adult (HbA) and fetal hemoglobin (HbF).
Representative HPLC profiles for hemoglobin produced by erythroid colonies that formed at 5% O2 in the presence of 2 U/ml Epo with no addition (vehicle only), 100 μM hemin, 1.0 mg/ml HAo (15.6 μM) HAo, 1.0 mg/ml HEMOLINK™ (15.6 μM), or 250 μM FeCl3 are shown in FIG. 7.

BFU-E = assay: Colony formation assay, adult peripheral blood LDMNC: BFU-E; details: for fold increase in BFU-E, adult blood, 0.2 U/ml Epo: ~20% O2, compared to untreated controls (no addition) at 0.2 U/ml Epo
Method: (§1) Blood was collected with informed consent from the antecubital vein of healthy adult human volunteers into vacutainers containing 143 USP U/ml sodium heparin. Low density mononuclear cells (LDMNC) were isolated by centrifugation over a density gradient as described in Example 1. Plastic adherent cells were removed by an overnight incubation in a tissue culture flask and the non-adherent cells were placed directly in a CFA. Conditions for the CFA are similar to those described in Examples 1-4.
(§2) The mean fold increase in adult blood BFU-E, CFU-E and CFU-GM progenitor number produced by 1.0 mg/ml HAo (15.6 μM) or HEMOLINK™ (15.6 μM), 100 μM hemin or 250 μM FeCl3 is shown in FIG. 9 (n=3). Cultures were maintained at ambient oxygen tensions (˜20% O2) for 14 days. The fold increase in colonies is expressed relative to control cells treated only with the respective vehicles. […] The magnitude of this increase was greater for adult than cord blood LDMNC.
(§3) The mean fold increase in adult blood BFU-E, CFU-E and CFU-GM progenitor number at 5% O2 is shown in FIG. 10 with the same additives. Results are expressed relative to control cells treated only with the respective vehicles and cultured at ambient oxygen tensions (˜20% O2). Reduced oxygen tensions (5% O)2 enhanced the growth of BFU-E which was further increased by the addition of HAo, HEMOLINK™, hemin or FeCl3. All agents stimulated a similar increase in BFU-E number (˜9-11-fold) at 5% O2 compared to untreated control cells at ambient oxygen tensions.
(§4) Mean fold increase in adult blood BFU-E, CFU-E and CFU-GM progenitor number in the presence of reduced Epo (0.2 U/ml) (n=3) at 20% O2 is shown in FIG. 11 with and without (no addition) the additives used in FIG. 9. Results are expressed relative to control cells at 2 U/ml Epo treated only with the respective vehicles (solid line at fold expansion=1.0). […] As with cord blood, CFU-GM numbers were unaffected by reductions in Epo. The addition of HAo or HEMOLINK™ to CFAs containing 0.2 U/ml Epo stimulated ˜4.5- and ˜3.5-fold increases in BFU-E and CFU-E, respectively, compared to untreated controls (no addition), restoring the progenitor number to that obtained at 2 U/ml Epo. Hemin stimulated the greatest increase in BFU-E and CFU-E (˜9- and ˜6-fold, respectively) at 0.2 U/ml Epo versus the untreated controls (no addition). FeCl3 stimulated only a ˜2-fold increase in erythroid progenitor number at 0.2 U/ml Epo.
Mean fold increase in adult blood BFU-E, CFU-E and CFU-GM progenitor number at 5% O2 in the presence of reduced Epo (0.2 U/ml) (n=3) is shown in FIG. 12 with and without the additives used in FIG. 9. […]

CFU-E = assay: Colony formation assay, adult peripheral blood LDMNC: CFU-E; details: for fold increase in CFU-E, adult blood, 0.2 U/ml Epo: ~20% O2, compared to untreated controls (no addition) at 0.2 U/ml Epo; for increase in number of CFU-E progenitors, adult blood, ambient O2 (in words): 2 U/ml Epo
Method: as §1, §2, §3, §4
Mean fold increase in adult blood BFU-E, CFU-E and CFU-GM progenitor number at 5% O2 in the presence of reduced Epo (0.2 U/ml) (n=3) is shown in FIG. 12 with and without the additives used in FIG. 9. Results are expressed relative to control cells at 2 U/ml Epo treated only with the respective vehicles and cultured at ambient oxygen tensions (˜20% O2) for 14 days (solid line at fold expansion=1.0). The number of erythroid progenitors stimulated at 5% O2 and 0.2 U/ml Epo was similar to that obtained with 2.0 U/ml Epo maintained at ambient oxygen tensions (no addition).

| Compound | adult Hb (erythroid colonies) | fetal Hb (erythroid colonies) | total Hb (erythroid colonies) | adult Hb per cell (erythroid colonies) | fetal Hb per cell (erythroid colonies) | total Hb per cell (erythroid colonies) | fold increase in BFU-E, adult blood, ambient O2 (BFU-E; 2 U/ml Epo, ambient O2, 1.0 mg/ml HAo or HEMOLINK, 100 μM hemin, 250 μM FeCl3, vs vehicle controls) | fold increase in CFU-E, adult blood, 0.2 U/ml Epo (CFU-E) | increase in number of CFU-E progenitors, adult blood, ambient O2 (in words) (CFU-E) | fold increase in BFU-E, adult blood, 0.2 U/ml Epo (BFU-E) |
| --- | --- | --- | --- | --- | --- | --- | --- | --- | --- | --- |
| [Cl][Fe]([Cl])[Cl] [FeCl3] | 5.0 µg | 9.5 µg | 14.5 µg | 0.14 pg/cell | 0.26 pg/cell | 0.40 pg/cell | < 3 fold | – | – | – |
| C=CC1=C(C)C2=Cc3c(C=C)c(C)c4[n]3[Fe-2]35([Cl])[n]6c(c(C)c(CCC(=O)O)c6=CC6=[N+]3C(=C4)C(C)=C6CCC(=O)O)=CC1=[N+]25 [hemin] | 8.7 µg | 19.4 µg | 28.1 µg | 0.14 pg/cell | 0.32 pg/cell | 0.46 pg/cell | – | ~6 fold | slight increases | ~9 fold |
| HAo: adult human hemoglobin obtained from red blood cells and purified by displacement chromatography; uncross linked product | 22.6 µg | 33.1 µg | 55.7 µg | 0.37 pg/cell | 0.54 pg/cell | 0.91 pg/cell | – | ~3.5 fold | slight increases | ~4.5 fold |
| HEMOLINK™: chemically crosslinked hemoglobin prepared by treating human hemoglobin with a polyaldehyde (O-raffinose) | 20.5 µg | 28.0 µg | 48.5 µg | 0.38 pg/cell | 0.51 pg/cell | 0.89 pg/cell | – | ~3.5 fold | slight increases | ~4.5 fold |
